Laboratory results: patent US4471131A, “Novel silyl esters of N-phosphonomethylglycine” (Monsanto Company, priority 1983, dated 1984)

Experiments:
Experiment in all cases: post-emergence herbicidal activity, greenhouse
Type in all cases: in vivo
Downy Brome = test system: Downy Brome
In short: (§1)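 Plants grown two to three weeks in greenhouse soil pans were atomizer-sprayed with test chemical in spray containing about 0.4% emulsifier, at the listed rates. Injury relative to unsprayed controls observed at approximately two and four weeks after treatment.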

Barnyardgrass = test system: Barnyardgrass
In short: as §1

Johnsongrass = settings: Table II
In short: as §1

Wild Buckwheat = settings: Table III
In short: as §1

Canada Thistle = settings: Table II, formulated in anhydrous tetrahydrofuran
In short: as §1

Cocklebur = settings: Table II, 2 WAT
In short: as §1

[1] = Table II, 2 WAT, 5.6 kg/h, formulated in anhydrous tetrahydrofuran
[2] = Table II, 2 WAT, 11.2 kg/h, formulated in anhydrous tetrahydrofuran
[3] = Table II, 4 WAT, 5.6 kg/h, formulated in anhydrous tetrahydrofuran
[4] = Table II, 4 WAT, 11.2 kg/h, formulated in anhydrous tetrahydrofuran
[5] = Table III, 2 WAT, 1.1 kg/h, formulated in anhydrous tetrahydrofuran
[6] = Table III, 2 WAT, 5.6 kg/h, formulated in anhydrous tetrahydrofuran
[7] = Table III, 2 WAT, .28 kg/h, formulated in anhydrous tetrahydrofuran
[8] = Table III, 4 WAT, 1.1 kg/h, formulated in anhydrous tetrahydrofuran
[9] = Table III, 4 WAT, 5.6 kg/h, formulated in anhydrous tetrahydrofuran
[10] = Table III, 4 WAT, .28 kg/h, formulated in anhydrous tetrahydrofuran
[11] = 2 WAT, 5.6 kg/h, formulated in anhydrous tetrahydrofuran
[12] = 4 WAT, 5.6 kg/h, formulated in anhydrous tetrahydrofuran

CCOC(=O)CNCP(=O)(O)O[Si](c1ccccc1)(c1ccccc1)C(C)(C)C [Ex. 7, Glycine, N--((([(1,1-Dimethylethyl)Diphenylsilyl]Oxy)Hydroxyphosphinyl)Methyl)-,Ethyl Ester]
Plant Response Index (J) (Downy Brome; Table II, 2 WAT, 5.6 kg/h): 2 (50-74% inhibition)
Plant Response Index (J) (Downy Brome; [1]): 1 (25-49% inhibition)
Plant Response Index (J) (Downy Brome; Table II, 2 WAT, 11.2 kg/h): 2 (50-74% inhibition)
Plant Response Index (J) (Downy Brome; [2]): 1 (25-49% inhibition)
Plant Response Index (J) (Downy Brome; Table II, 4 WAT, 5.6 kg/h): 3 (75-99% inhibition)
Plant Response Index (J) (Downy Brome; [3]): 1 (25-49% inhibition)
Plant Response Index (J) (Downy Brome; Table II, 4 WAT, 11.2 kg/h): 3 (75-99% inhibition)
Plant Response Index (J) (Downy Brome; [4]): 1 (25-49% inhibition)
Plant Response Index (J) (Downy Brome; Table III, 2 WAT, 1.1 kg/h): 2 (50-74% inhibition)
Plant Response Index (J) (Downy Brome; [5]): 1 (25-49% inhibition)
Plant Response Index (J) (Downy Brome; Table III, 2 WAT, 5.6 kg/h): 2 (50-74% inhibition)
Plant Response Index (J) (Downy Brome; [6]): 2 (50-74% inhibition)
Plant Response Index (J) (Downy Brome; Table III, 2 WAT, .28 kg/h): 1 (25-49% inhibition)
Plant Response Index (J) (Downy Brome; [7]): 0 (0-24% inhibition)
Plant Response Index (J) (Downy Brome; Table III, 4 WAT, 1.1 kg/h): 2 (50-74% inhibition)
Plant Response Index (J) (Downy Brome; [8]): 1 (25-49% inhibition)
Plant Response Index (J) (Downy Brome; Table III, 4 WAT, 5.6 kg/h): 2 (50-74% inhibition)
Plant Response Index (J) (Downy Brome; [9]): 3 (75-99% inhibition)
Plant Response Index (J) (Downy Brome; Table III, 4 WAT, .28 kg/h): 0 (0-24% inhibition)
Plant Response Index (J) (Downy Brome; [10]): 0 (0-24% inhibition)
Plant Response Index (K) (Barnyardgrass; Table II, 2 WAT, 5.6 kg/h): 3 (75-99% inhibition)
Plant Response Index (K) (Barnyardgrass; [1]): 1 (25-49% inhibition)
Plant Response Index (K) (Barnyardgrass; Table II, 2 WAT, 11.2 kg/h): 3 (75-99% inhibition)
Plant Response Index (K) (Barnyardgrass; [2]): 2 (50-74% inhibition)
Plant Response Index (K) (Barnyardgrass; Table II, 4 WAT, 5.6 kg/h): 3 (75-99% inhibition)
Plant Response Index (K) (Barnyardgrass; [3]): 2 (50-74% inhibition)
Plant Response Index (K) (Barnyardgrass; Table II, 4 WAT, 11.2 kg/h): 4 (100% inhibition)
Plant Response Index (K) (Barnyardgrass; [4]): 3 (75-99% inhibition)
Plant Response Index (K) (Barnyardgrass; Table III, 2 WAT, 1.1 kg/h): 3 (75-99% inhibition)
Plant Response Index (K) (Barnyardgrass; [5]): 2 (50-74% inhibition)
Plant Response Index (K) (Barnyardgrass; Table III, 2 WAT, 5.6 kg/h): 3 (75-99% inhibition)
Plant Response Index (K) (Barnyardgrass; [6]): 3 (75-99% inhibition)
Plant Response Index (K) (Barnyardgrass; Table III, 2 WAT, .28 kg/h): 2 (50-74% inhibition)
Plant Response Index (K) (Barnyardgrass; [7]): 1 (25-49% inhibition)
Plant Response Index (K) (Barnyardgrass; Table III, 4 WAT, 1.1 kg/h): 3 (75-99% inhibition)
Plant Response Index (K) (Barnyardgrass; [8]): 2 (50-74% inhibition)
Plant Response Index (K) (Barnyardgrass; Table III, 4 WAT, 5.6 kg/h): 3 (75-99% inhibition)
Plant Response Index (K) (Barnyardgrass; [9]): 3 (75-99% inhibition)
Plant Response Index (K) (Barnyardgrass; Table III, 4 WAT, .28 kg/h): 2 (50-74% inhibition)
Plant Response Index (K) (Barnyardgrass; [10]): 1 (25-49% inhibition)
Plant Response Index (I) (Johnsongrass; 2 WAT, 5.6 kg/h): 3 (75-99% inhibition)
Plant Response Index (I) (Johnsongrass; [11]): 0 (0-24% inhibition)
Plant Response Index (I) (Johnsongrass; 2 WAT, 11.2 kg/h): 4 (100% inhibition)
Plant Response Index (I) (Johnsongrass; 2 WAT, 11.2 kg/h, formulated in anhydrous tetrahydrofuran): 0 (0-24% inhibition)
Plant Response Index (I) (Johnsongrass; 4 WAT, 5.6 kg/h): 4 (100% inhibition)
Plant Response Index (I) (Johnsongrass; [12]): 2 (50-74% inhibition)
Plant Response Index (I) (Johnsongrass; 4 WAT, 11.2 kg/h): 4 (100% inhibition)
Plant Response Index (I) (Johnsongrass; 4 WAT, 11.2 kg/h, formulated in anhydrous tetrahydrofuran): 1 (25-49% inhibition)
Plant Response Index (Q) (Wild Buckwheat; 2 WAT, 1.1 kg/h): 2 (50-74% inhibition)
Plant Response Index (Q) (Wild Buckwheat; 2 WAT, 1.1 kg/h, formulated in anhydrous tetrahydrofuran): 2 (50-74% inhibition)
Plant Response Index (Q) (Wild Buckwheat; 2 WAT, 5.6 kg/h): 2 (50-74% inhibition)
Plant Response Index (Q) (Wild Buckwheat; [11]): 3 (75-99% inhibition)
Plant Response Index (Q) (Wild Buckwheat; 2 WAT, .28 kg/h): 2 (50-74% inhibition)
Plant Response Index (Q) (Wild Buckwheat; 2 WAT, .28 kg/h, formulated in anhydrous tetrahydrofuran): 1 (25-49% inhibition)
Plant Response Index (Q) (Wild Buckwheat; 4 WAT, 1.1 kg/h): 2 (50-74% inhibition)
Plant Response Index (Q) (Wild Buckwheat; 4 WAT, 1.1 kg/h, formulated in anhydrous tetrahydrofuran): 2 (50-74% inhibition)
Plant Response Index (Q) (Wild Buckwheat; 4 WAT, 5.6 kg/h): 3 (75-99% inhibition)
Plant Response Index (Q) (Wild Buckwheat; [12]): 3 (75-99% inhibition)
Plant Response Index (Q) (Wild Buckwheat; 4 WAT, .28 kg/h): 2 (50-74% inhibition)
Plant Response Index (Q) (Wild Buckwheat; 4 WAT, .28 kg/h, formulated in anhydrous tetrahydrofuran): 1 (25-49% inhibition)
Plant Response Index (A) (Canada Thistle; 2 WAT, 5.6 kg/h): 1 (25-49% inhibition)
Plant Response Index (A) (Canada Thistle; 2 WAT, 11.2 kg/h): 1 (25-49% inhibition)
Plant Response Index (A) (Canada Thistle; 4 WAT, 5.6 kg/h): 3 (75-99% inhibition)
Plant Response Index (A) (Canada Thistle; 4 WAT, 11.2 kg/h): 3 (75-99% inhibition)
Plant Response Index (B) (Cocklebur; 5.6 kg/h): 3 (75-99% inhibition)
Plant Response Index (B) (Cocklebur; 5.6 kg/h, formulated in anhydrous tetrahydrofuran): 2 (50-74% inhibition)
Plant Response Index (B) (Cocklebur; 11.2 kg/h): 2 (50-74% inhibition)
Plant Response Index (B) (Cocklebur; 11.2 kg/h, formulated in anhydrous tetrahydrofuran): 1 (25-49% inhibition)
